Tests used:
[1] = target: T1, human E3 ligase component cereblon (CRBN) (Homo sapiens, UniProt Q96SW2); experiment: Cereblon (CRBN) target engagement, NanoBRET TE Intracellular E3 Ligase Assay in transfected HEK-293T cells; settings: read-out: CRBN Binding EC50
T1 construct: host or cells: HEK293T
Procedure, shortened: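 Tracer displacement was read as the 610/450 nm BRET signal after 2 h at 37° C with an 11-point dilution series, typically 10 μM to 100 pM. Live HEK-293T cells expressed NanoLuc fused N-terminal to human CRBN together with DDB1. IC50 was fitted with a four-parameter logistic model.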

IKZF1 (Ikaros) = target: T2, IKZF1 (Ikaros) (Homo sapiens, UniProt Q13422); experiment: IKZF1 reporter degradation assay (HEK 293T IKZF1-mNeonGreen reporter cell line); assay type: cell-based; settings: HEK 293T IKZF1-mNeonGreen reporter, 24 hours incubation
T2 construct: mScarlet (behind P2A) (C, cleaved yes); expressed in transfected cells
Procedure, shortened: (§1)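 In reporter HEK 293T clones, the FITC exposure was 1000 ms for the IKZF2 line and 500 ms for the IKZF1 and IKZF3 lines. Imaging followed 24 h of compound treatment, and percent-positive scoring was fitted to a four-parameter logistic curve for DC50.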

IKZF2 (Helios) [2] = target: T3, IKZF2 (Helios) (Homo sapiens, UniProt Q96SW2+Q9UKS7); experiment: IKZF2 reporter degradation assay (HEK 293T IKZF2-mNeonGreen reporter cell line); assay type: cell-based; settings: HEK-293T, 24 h, @ 1 μM, HEK 293T IKZF2-mNeonGreen reporter, 24 hours incubation
T3 construct: Leu-Asp junction (codons ctcgac before the linker); mScarlet (behind P2A) (C, cleaved yes); expressed in transfected cells
Procedure, shortened: as §1

IKZF2 (Helios) [3] = target: T4, IKZF2 (Helios) (Homo sapiens, UniProt Q9UKS7); experiment: as above; assay type: cell-based; settings: HEK 293T IKZF2-mNeonGreen reporter, 24 hours incubation
T4 construct: Leu-Asp junction (codons ctcgac before the linker); mScarlet (behind P2A) (C, cleaved yes); expressed in transfected cells
Procedure, shortened: as §1

IKZF3 (Aiolos) = target: T5, IKZF3 (Aiolos) (Homo sapiens, UniProt Q9UKT9); experiment: IKZF3 reporter degradation assay (HEK 293T IKZF3-mNeonGreen reporter cell line); assay type: cell-based; settings: HEK 293T IKZF3-mNeonGreen reporter, 24 hours incubation
T5 construct: Leu-Asp junction (codons ctcgac before the linker); mScarlet (behind P2A) (C, cleaved yes); expressed in transfected cells
Procedure, shortened: as §1

T4 sequence (Q9UKS7 whole entry): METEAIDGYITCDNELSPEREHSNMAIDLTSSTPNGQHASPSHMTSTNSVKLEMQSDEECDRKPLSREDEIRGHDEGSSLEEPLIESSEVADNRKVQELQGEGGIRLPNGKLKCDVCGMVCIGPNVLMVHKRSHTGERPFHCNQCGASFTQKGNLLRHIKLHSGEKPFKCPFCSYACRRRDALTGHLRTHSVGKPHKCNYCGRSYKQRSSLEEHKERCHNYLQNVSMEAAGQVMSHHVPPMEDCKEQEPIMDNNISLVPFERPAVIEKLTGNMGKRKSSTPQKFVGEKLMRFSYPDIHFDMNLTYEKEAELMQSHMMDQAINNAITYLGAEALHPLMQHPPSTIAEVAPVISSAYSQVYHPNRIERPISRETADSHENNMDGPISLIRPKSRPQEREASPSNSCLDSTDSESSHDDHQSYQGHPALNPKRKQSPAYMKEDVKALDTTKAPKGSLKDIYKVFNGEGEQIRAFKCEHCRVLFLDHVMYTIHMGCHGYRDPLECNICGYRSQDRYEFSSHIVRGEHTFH
T4 sequence (Q96SW2 whole entry, further chain): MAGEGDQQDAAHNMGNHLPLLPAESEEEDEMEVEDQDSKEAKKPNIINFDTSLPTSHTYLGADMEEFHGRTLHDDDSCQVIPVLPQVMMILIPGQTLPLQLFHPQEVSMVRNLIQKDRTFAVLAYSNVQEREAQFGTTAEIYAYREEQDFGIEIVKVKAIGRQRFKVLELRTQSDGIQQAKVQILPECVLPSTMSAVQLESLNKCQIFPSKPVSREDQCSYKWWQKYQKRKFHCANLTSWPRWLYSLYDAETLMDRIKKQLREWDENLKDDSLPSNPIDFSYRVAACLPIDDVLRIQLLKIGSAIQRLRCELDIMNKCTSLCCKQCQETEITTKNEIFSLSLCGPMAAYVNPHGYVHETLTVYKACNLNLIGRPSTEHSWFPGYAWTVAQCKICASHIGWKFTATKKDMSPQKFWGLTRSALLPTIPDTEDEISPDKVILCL
T4 sequence (Q16531 whole entry partner): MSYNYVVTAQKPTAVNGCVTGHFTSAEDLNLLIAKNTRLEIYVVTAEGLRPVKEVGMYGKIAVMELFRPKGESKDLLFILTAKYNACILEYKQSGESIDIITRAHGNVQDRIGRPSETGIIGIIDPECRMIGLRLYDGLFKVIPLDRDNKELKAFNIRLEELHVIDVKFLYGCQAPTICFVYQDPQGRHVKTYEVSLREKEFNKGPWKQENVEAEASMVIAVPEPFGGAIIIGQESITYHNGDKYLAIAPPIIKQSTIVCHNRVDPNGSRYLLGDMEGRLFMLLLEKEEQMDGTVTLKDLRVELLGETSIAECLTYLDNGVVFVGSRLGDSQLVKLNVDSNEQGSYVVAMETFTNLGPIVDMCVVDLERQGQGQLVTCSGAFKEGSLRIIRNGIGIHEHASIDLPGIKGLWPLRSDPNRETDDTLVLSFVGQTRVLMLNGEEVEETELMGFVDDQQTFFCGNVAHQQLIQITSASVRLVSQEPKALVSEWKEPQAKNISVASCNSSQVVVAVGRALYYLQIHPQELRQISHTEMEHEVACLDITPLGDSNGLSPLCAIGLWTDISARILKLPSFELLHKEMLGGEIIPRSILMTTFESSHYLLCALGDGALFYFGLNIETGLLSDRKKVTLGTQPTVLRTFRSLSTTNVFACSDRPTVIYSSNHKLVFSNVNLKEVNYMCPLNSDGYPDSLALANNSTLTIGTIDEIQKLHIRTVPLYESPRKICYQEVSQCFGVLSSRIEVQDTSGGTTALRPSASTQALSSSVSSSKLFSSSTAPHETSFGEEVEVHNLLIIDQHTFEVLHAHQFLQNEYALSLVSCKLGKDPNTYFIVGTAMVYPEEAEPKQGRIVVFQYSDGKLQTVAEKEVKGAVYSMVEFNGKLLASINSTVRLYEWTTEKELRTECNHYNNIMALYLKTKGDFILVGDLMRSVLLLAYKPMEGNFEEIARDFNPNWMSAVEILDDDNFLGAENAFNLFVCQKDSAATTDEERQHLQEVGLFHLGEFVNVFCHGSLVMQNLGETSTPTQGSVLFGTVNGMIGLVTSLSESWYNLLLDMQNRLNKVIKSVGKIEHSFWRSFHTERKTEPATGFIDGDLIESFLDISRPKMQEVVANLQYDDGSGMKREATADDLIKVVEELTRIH
T3 sequence (Q9UKS7 whole entry): as the sequence (Q9UKS7 whole entry) above
T3 sequence (Q96SW2 whole entry): as the sequence (Q96SW2 whole entry, further chain) above
T3 sequence (Q16531 whole entry partner): as the sequence (Q16531 whole entry partner) above
T2 sequence (Q96SW2 whole entry partner): as the sequence (Q96SW2 whole entry, further chain) above
T2 sequence (Q16531 whole entry partner): as the sequence (Q16531 whole entry partner) above
T2 sequence (Q13422 whole entry): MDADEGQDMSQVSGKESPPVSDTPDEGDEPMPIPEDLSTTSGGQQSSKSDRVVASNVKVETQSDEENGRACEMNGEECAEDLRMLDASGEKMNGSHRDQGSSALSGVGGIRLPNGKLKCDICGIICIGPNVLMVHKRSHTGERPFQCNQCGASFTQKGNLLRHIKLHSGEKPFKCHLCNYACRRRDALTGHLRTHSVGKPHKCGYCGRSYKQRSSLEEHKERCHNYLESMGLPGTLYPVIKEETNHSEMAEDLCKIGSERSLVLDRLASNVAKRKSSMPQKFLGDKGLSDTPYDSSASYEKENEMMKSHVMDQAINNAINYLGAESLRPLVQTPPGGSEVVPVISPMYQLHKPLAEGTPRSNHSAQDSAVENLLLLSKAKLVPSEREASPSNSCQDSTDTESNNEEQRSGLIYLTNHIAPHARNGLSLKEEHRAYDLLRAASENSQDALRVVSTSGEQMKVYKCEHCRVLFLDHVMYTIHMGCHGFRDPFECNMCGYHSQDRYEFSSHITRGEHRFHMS
T5 sequence (Q96SW2 whole entry partner): as the sequence (Q96SW2 whole entry, further chain) above
T5 sequence (Q16531 whole entry partner): as the sequence (Q16531 whole entry partner) above
T5 sequence (Q9UKT9 whole entry): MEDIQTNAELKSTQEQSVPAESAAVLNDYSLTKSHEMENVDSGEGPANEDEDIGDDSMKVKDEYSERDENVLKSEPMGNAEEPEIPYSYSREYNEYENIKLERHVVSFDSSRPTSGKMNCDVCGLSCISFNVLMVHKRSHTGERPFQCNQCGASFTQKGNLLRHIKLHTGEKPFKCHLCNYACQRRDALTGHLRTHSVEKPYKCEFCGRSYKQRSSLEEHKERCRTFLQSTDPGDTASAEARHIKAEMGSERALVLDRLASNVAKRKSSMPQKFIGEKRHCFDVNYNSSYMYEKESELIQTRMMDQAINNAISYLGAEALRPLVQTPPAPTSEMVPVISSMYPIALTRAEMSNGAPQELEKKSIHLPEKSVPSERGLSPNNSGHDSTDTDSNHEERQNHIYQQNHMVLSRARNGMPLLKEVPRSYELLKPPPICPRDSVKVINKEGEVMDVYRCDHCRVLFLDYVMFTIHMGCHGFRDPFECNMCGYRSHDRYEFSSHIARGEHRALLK
T1 sequence (Q96SW2 whole entry): as the sequence (Q96SW2 whole entry, further chain) above
T1 sequence (Q16531 whole entry partner): as the sequence (Q16531 whole entry partner) above

| Structure (SMILES) | EC50 [1] [nM] | DC50 (IKZF1 (Ikaros)) [µM] | inhibition at 1 µM (IKZF2 (Helios) [2]) [%] | DC50 (IKZF2 (Helios) [3]) [nM] | DC50 (IKZF3 (Aiolos)) [µM] |
| --- | --- | --- | --- | --- | --- |
| O=C1CCC(N2Cc3cc(OC4CCC[C@@H]4N4CC(c5ccncc5)C4)ccc3C2=O)C(=O)N1 (mixture of isomers) [Compound 205-B, Rac-3-(1-oxo-5-(((cis)-2-(3-(pyridin-4-yl)azetidin-1-yl)cyclopentyl)oxy)isoindolin-2-yl)piperidine-2,6-dione] | 46 | > 30 | 40.6 | 219 | > 30 |
| O=C1CCC(N2Cc3cc(OC4CCC[C@@H]4N4CC(c5cccnc5)C4)ccc3C2=O)C(=O)N1 (mixture of isomers) [Compound 207-B, Rac-3-(1-oxo-5-(((cis)-2-(3-(pyridin-3-yl)azetidin-1-yl)cyclopentyl)oxy)isoindolin-2-yl)piperidine-2,6-dione] | 104 | > 30 | 24.8 | 1470 | > 30 |
| O=C1CCC(N2Cc3cc(OC4CCC[C@@H]4N4CC(c5ccccn5)C4)ccc3C2=O)C(=O)N1 (mixture of isomers) [Compound 209-B, Rac-3-(1-oxo-5-(((cis)-2-(3-(pyridin-2-yl)azetidin-1-yl)cyclopentyl)oxy)isoindolin-2-yl)piperidine-2,6-dione] | 58 | > 30 | 38.9 | 230 | > 30 |
| O=C1CCC(N2Cc3cc(O[C@H]4CCCC[C@@H]4N4CC(c5ccc6c(c5)OCCO6)C4)ccc3C2=O)C(=O)N1 (stereo partly drawn) [Compound 58-A, 3-(5-(((1S,2S)-2-(3-(2,3-dihydrobenzo[b][1,4]dioxin-6-yl)azetidin-1-yl)cyclohexyl)oxy)-1-oxoisoindolin-2-yl)piperidine-2,6-dione] | 3 | > 30 | 64.5 | 5 | > 30 |
| O=C1CCC(N2Cc3cc(OC4CCCC4N4CC(c5ccc6cccnc6c5)C4)ccc3C2=O)C(=O)N1 (stereo not drawn) [Compound 169-B, 3-(1-oxo-5-((2-(3-(quinolin-7-yl)azetidin-1-yl)cyclopentyl)oxy)isoindolin-2-yl)piperidine-2,6-dione] | 13 | > 30 | 56.3 | 46 | > 30 |

More lines, in order of falling EC50 [1], values ahead:

| EC50 [1] [nM] | DC50 (IKZF1 (Ikaros)) [µM] | inhibition at 1 µM (IKZF2 (Helios) [2]) [%] | DC50 (IKZF2 (Helios) [3]) [nM] | DC50 (IKZF3 (Aiolos)) [µM] | Structure (SMILES) |
| --- | --- | --- | --- | --- | --- |
| 109 | > 30 | 54.6 | 66 | > 30 | COc1cc(C2CN(C3CCCC3Oc3ccc4c(c3)CN(C3CCC(=O)NC3=O)C4=O)C2)ccn1 (stereo not drawn) [Compound 170-B, 3-(5-((2-(3-(2-methoxypyridin-4-yl)azetidin-1-yl)cyclopentyl)oxy)-1-oxoisoindolin-2-yl)piperidine-2,6-dione] |
| 44 | > 30 | 74.3 | 71 | > 30 | Cc1nccc(C2CN(C3CCCCC3Oc3ccc4c(c3)CN(C3CCC(=O)NC3=O)C4=O)C2)n1 (stereo not drawn) [Compound 190-B, 3-(5-((2-(3-(2-methylpyrimidin-4-yl)azetidin-1-yl)cyclohexyl)oxy)-1-oxoisoindolin-2-yl)piperidine-2,6-dione] |
| 6 | > 30 | 81.9 | 6 | > 30 | O=C1CCC(N2Cc3cc(OC4CCCCC4N4CC(c5ccc6cccnc6c5)C4)ccc3C2=O)C(=O)N1 (stereo not drawn) [Compound 193-B, 3-(1-oxo-5-((2-(3-(quinolin-7-yl)azetidin-1-yl)cyclohexyl)oxy)isoindolin-2-yl)piperidine-2,6-dione] |
| 2 | > 30 | 70.3 | 4 | > 30 | O=C1CCC(N2Cc3cc(OC4CCCCC4N4CC(c5ncc(C6CC6)cn5)C4)ccc3C2=O)C(=O)N1 (stereo not drawn) [Compound 177-B, 3-(5-((2-(3-(5-cyclopropylpyrimidin-2-yl)azetidin-1-yl)cyclohexyl)oxy)-1-oxoisoindolin-2-yl)piperidine-2,6-dione] |
